Patent US20070059720A9 (priority 2004, published 2007)

Assays:
ERα [1] = experiment: Immunoblot of ERα in T47D vector and MTA2 clones; type: cell-based, human
EBP50 [2] = experiment: Immunoblot of EBP50 in T47D vector and MTA2 clones; type: cell-based, human
ezrin = experiment: Immunoblot of ezrin in MCF-7 cells; type: cell-based, human; conditions: 24 hours
Procedure: (§1) In Panel B, immunoprecipitation of E or T treated MCF-7 cells was performed followed by immunoblot analysis.

[3] = system: progesterone receptor (PR) A and B forms; experiment: Immunoblot of PR-A and PR-B in MCF-7 transfectants; type: cell-based, human
Procedure: Cells grown in 100 mm dishes were starved in phenol red-free (PRF), serum-free MEM (Specialty Media, Phillipsburg, N.J.) for 48 hours, and were then treated for 2 hours with vehicle (ethanol), estrogen (100 nM, 20), or OHT (100 nM). After treatment, cells were rinsed twice with ice-cold phosphate-buffered saline (PBS) and were then lysed immediately with 200 μl of cell lysis buffer (20 mM Tris HCl, pH 7.4, 150 mM NaCl, 1 mM B-glycerophosphate, 1 mM sodium orthovanadate, and 10% glycerol plus 1:100 proteinase inhibitor cocktail III) (Calbiochem, LaJolla, Calif.) per 100 mm tissue culture. The cell lysates were cleared by centrifugation at 16,100×g for 10 minutes at 4° C. Protein concentration was determined with the BCA Protein Assay kit (Pierce, Rockfold, Ill.) according to the manufacturer's directions. Equal amount of cell extracts were resolved under denaturing conditions by electrophoresis in 8-10% polyacrylamide gels containing sodium dodecyl sulfate (SDS-PAGE), and transferred to nitrocellulose membranes by electroblotting (Schleicher & Schuell, Keene, NH). After blocking of the transferred nitrocellulose membrane with TBST (20 mM Tris pH 7.6, 150 mM NaCl, 0.1% Tween-20) supplemented with 5% non-fat milk for 1 hour at room temperature, the membrane was incubated with primary antibodies either for 1 hour at room temperature (anti-ERα, 1:100 dilution; anti-AIB1, 1:100 dilution; anti-ERK2, 1:500 dilution; anti-Cyclin D1,1:500 dilution; anti-PR, C-19, 1:200 dilution; anti-p190, 1:1000 dilution; anti-V5, 1:5000 dilution), or overnight at 4° C. (anti-phospho MAPK, 1:1000 dilution; anti-phosphor-Ser118-ERα; 1:1000 dilution; MAPK p42/44, 1:1000 dilution), incubated with secondary antibodies for 1 hour at room temperature and then developed with Enhanced Chemiluminescence Reagents (Amersham Pharmacia Biotech, Piscataway, N.J.).
(§2) As expected with two hours of estrogen treatment, no induction of the two PR isoforms were detected in either the control vector (Con 1 and 2), or in the MKP3-transfected cells (FIG. 11A). […]

EBP50 [4] = experiment: Immunoblot of EBP50 in MCF-7 cells; type: cell-based, human; conditions: 24 hours
Procedure: as §1

ERα [5] = experiment: Transient transactivation assay with ERE-luciferase reporter; type: cell-based; conditions: U20S cells with exogenous ER or MCF-7 cells with endogenous ER; EBP50 expression
Text: Transient transactivation assays with an ERE-luciferase reporter were utilized in U20S cells expressing exogenous ER (Panel A), or MCF-7 cells expressing endogenous ER (Panel B). ER activity was enhanced with EBP50 expression in the presence of estrogen.

cyclin D1 (CCND1) = experiment: Immunoblot of CCND1 in MCF-7 transfectants; type: cell-based, human; conditions: MKP3 overexpressing cells; 2 hours
Procedure: Cells grown in 100 mm dishes were starved in phenol red-free (PRF), serum-free MEM (Specialty Media, Phillipsburg, N.J.) for 48 hours, and were then treated for 2 hours with vehicle (ethanol), estrogen (100 nM, 20), or OHT (100 nM). After treatment, cells were rinsed twice with ice-cold phosphate-buffered saline (PBS) and were then lysed immediately with 200 μl of cell lysis buffer (20 mM Tris HCl, pH 7.4, 150 mM NaCl, 1 mM B-glycerophosphate, 1 mM sodium orthovanadate, and 10% glycerol plus 1:100 proteinase inhibitor cocktail III) (Calbiochem, LaJolla, Calif.) per 100 mm tissue culture. The cell lysates were cleared by centrifugation at 16,100×g for 10 minutes at 4° C. Protein concentration was determined with the BCA Protein Assay kit (Pierce, Rockfold, Ill.) according to the manufacturer's directions. Equal amount of cell extracts were resolved under denaturing conditions by electrophoresis in 8-10% polyacrylamide gels containing sodium dodecyl sulfate (SDS-PAGE), and transferred to nitrocellulose membranes by electroblotting (Schleicher & Schuell, Keene, NH). […]
as §2

ER-positive tumors = conditions: cited from earlier work
PR-B = experiment: PR ubiquitin assay; type: cell-based, human; conditions: 2 hrs in the presence of a proteasomal inhibitor
Procedure: Cells were staved in PRF MEM for 24 hours, and then 2×10^6 cells were seeded into 100 mm tissue culture plates, and incubated for another 24 hours. Cells were transiently transfected with Fugene 6 reagent (Roche, Indianapolis, Ind.) following the manufacturer's protocol. Each plate was transfected with 1 μg pcDNA 3.1-PR-B (subcloned by BamHI digestion from pSG5-human PR-B clone (Richer et al., 1998) obtained from Dr. Kathryn Horwitz, University of Colorado Health Sciences Center, 1 μg MKP3-V5, and 3 μg pcDNA-HAUbiquitin (kindly provided by Dr. Xinhua Feng, Baylor College of Medicine). Twenty-four hours later, cells were switched to serum free, PRF MEM, incubated for another 24 hours. In some experiments were pretreated with the 50 μM MG-132 (Calbiochem, LaJolla, Calif.) for 2 hours, and then treated with vehicle (ethanol), estradiol (E2, 100 nM), or 4-OH-Tam (100 nM) for an additional 2 hours. Cells were then harvested in 1 ml cell lysis buffer supplemented with 50 μM MG-132. Cell lysates from each treatment were precleared with the addition of 50 μl 50% protein A slurry (Amersham), and immunoprecipitated with the addition of anti-PR antibodies C-19 and H190 (2 μg each), and 20 μl 50% protein A slurry. […]

[6] = adjuvant therapy, patients with ER-positive tumors

In the case of `C[C@]12CC[C@@H]3c4ccc(O)cc4CC[C@H]3[C@@H]1CC[C@@H]2O` [E2, 17β-Estradiol], the ERα protein levels (ERα [1]) is reported as “decreased”, the EBP50 levels (EBP50 [2]) is reported as “increased” and the ezrin levels (ezrin) is reported as “similarly induced”. The “induction of the two PR isoforms” value ([3]; two hours of treatment, control vector and MKP3-transfected cells) was “no induction” and the EBP50 levels (EBP50 [4]) was “similarly induced”.
For `CC/C(=C(\c1ccccc1)c1ccc(OCCN(C)C)cc1)c1ccccc1` [Tam, tamoxifen], the “effect on ER activity (ERE-luciferase)” value (ERα [5]) is given as “antagonist and reversed estrogen's effects”, the CCND1 levels (cyclin D1 (CCND1)) is given as “High levels” and the 10-year recurrence risk (ER-positive tumors; [6]) is given as “halves”. For the same compound, the “reduction of the risk of death from metastatic disease” value (ER-positive tumors; [6]) was 26%, the “share of patients with ER-positive disease who respond” value (ER-positive tumors; human, in vivo) was 60% and the “level of polyubiquitin-conjugated PR-B” value (PR-B) was “increased”. The PR-B levels ([3]; two MKP3 transfectants, not observed in control MCF-7 transfectants) was “striking diminution”.
